Experiments:
NMDA receptors = assay: NMDA-mediated synaptic potentials in hippocampal slices (DNQX, reduced Mg2+); format: cell-based, mouse; conditions: 50 (M DL-AP5); 10 (M DNQX, Mg2+ 50 μM)
Description: (§1) Transverse hippocampal slices were prepared as previously described (Abel et al., 1997). Mice of either sex, aged 7-18 weeks were used. Where appropriate, the experimenter was blind to animal genotype. […] For extracellular recordings, ACSF-filled glass electrodes (1-3 MW) were positioned in the stratum radiatum of area CA1. A bipolar nichrome stimulating electrode was also placed in stratum radiatum for stimulation of Schaffer collateral afferents (0.05 ms duration). Unless otherwise mentioned, test stimuli were applied at a frequency of 1 per minute (0.017 Hz), and at a stimulus intensity that elicits a fEPSP slope that was 35% of the maximum. Experiments in which changes in the fiber volley occurred, were discarded. Drugs were applied through the perfusion medium. DL-AP5, calyculin A, KT5720 and R(+)-6-Bromo-7,8-dihydroxy-3-allyl-1-phenyl-2,3,5-tetrahydro-1H-3-benzazepine (6-Br-APB) were purchased from Research Biochemicals International, Natick, Mass.

SC-CA1 synapse [1] = assay: Chemically-induced slow-onset potentiation (L-LTP), fEPSP recording in hippocampal slices; format: cell-based, mouse; design: dose or concentration left out as unconfirmed
Description: as §1

calcineurin [2] = assay: Phosphatase assay in hippocampal extracts of CN98 mice; format: biochemical, mouse; conditions: CN98 mutant and wild-type hippocampal extracts
Description: Phosphatase assays were performed according to Hubbard and Klee (1991). Briefly, mice were injected with 5 ml/kg of pentobarbital and decapitated. Hippocampi were homogenized in 2 mM EDTA (pH 8), 250 mM sucrose, 0.1% β-mercaptoethanol and centrifuged. Supernatants were diluted in 40 mM Tris-HCl (pH 8), 0.1 M NaCl, 0.4 mg/ml bovine serum albumin, 1 mM DTT, […] okadaic acid (Buffer 1) and incubated at 30° C. for 1 min in Buffer 1 containing […] of the peptide [γ^32p]-RII subunit of cyclic AMP-dependent protein kinase (PKA) and either 0.1 mM calmodulin (SIGMA®) and 0.66 mM Ca^2( or 0.33 mM EGTA (pH 7.5). The peptide [Ala^97]-RII (Peninsula Labs) was labeled with 0.3 mM [γ^32p] ATP (NEN®) using […] catalytic subunit of PKA (FLUKA®). The reaction was stopped with 5% TCA in 0.1 M KH2PO4 and the enzyme activity was calculated as previously described (Klee et al., 1983) and is expressed in nmol Pi released/min/mg protein. The protein concentration was determined using the bicinchroninic acid protein assay kit (SIGMA®). All samples were performed in triplicate.

calcineurin [3] = assay: Phosphatase assay in hippocampal extracts of rTet-CN279 mice; format: biochemical, mouse; conditions: extracts from control and mutant mice not treated or treated with doxycycline
Description: Phosphatase assays were performed as described in Winder et al., 1998. Briefly, hippocampal extracts from rTet-CN279 adult mice were prepared in 2 mM EDTA (pH 8), 250 mM sucrose, 0.1% b-mercaptoethanol. Supernatants were incubated at 30° C. for 1 min in the presence of […] [[…]]-RII peptide and either 0.1 mM calmodulin and 0.66 mM Ca^2( or 0.33 mM EGTA. The enzyme activity was expressed in nmol Pi released/min/mg protein.

calcineurin [4] = assay: Phosphatase assay in hippocampal extracts of Tet-CN279 and Tet-CN273 mice; format: biochemical, mouse
Description: Phosphatase assays were performed as described in Winder et al., 1998. Briefly, mice were injected with 5 ml/kg of pentobarbital and decapitated. Hippocampi were dissected out, homogenized in 2 mM EDTA (pH 8), 250 mM sucrose, 0.1% β-mercaptoethanol. Supernatants were incubated at 30° C. for 1 min in presence of the […] [[…]]-RII peptide and either 0.1 mM calmodulin and 0.66 mM Ca^2+ or 0.33 mM EGTA. The reaction was stopped and the enzyme activity calculated previously as described (Klee et al., 1983; 1987). The activity was expressed in nmol Pi released/min/mg protein. The protein concentration was determined using the bicinchroninic acid protein assay kit (SIGMA®). All samples were performed in triplicate.

SC-CA1 synapse [5] = assay: LTP induced by four 100 Hz trains in hippocampal slices in the presence of drugs; format: cell-based, mouse; conditions: wild-type slices; KT5720, 20 minute pretreatment; anisomycin 30 μM one hour
Description: as §1

SC-CA1 synapse [6] = assay: LTP induced by two 100 Hz trains in hippocampal slices in the presence of drugs; format: cell-based, mouse; design: Sensitivity of LTP elicited by two trains to preincubation with the drug: dose or concentration left out as unconfirmed
Description: as §1

[7] = tested on: protein synthesis in area CA1; conditions: 30 μM; Stanton and Sarvey, 1984; Osten et al., 1996; cited from earlier work
[8] = tested on: Schaffer collateral CA1 pathway; assay: LTP induced by two 100 Hz trains (I-LTP) in slices of rTet-CN279 mice treated with doxycycline (rtTA system); format: cell-based, mouse; conditions: ACSF 6 ng doxycycline/ml
Description: Recordings were performed as described in Winder et al., (1998). […] Test stimuli were applied at a frequency of 1 per min at an intensity that elicits an EPSP with a slope of […] of maximum. Slices from mice treated with doxycycline were incubated in ACSF containing doxycycline (6 ng/ml) for 2-3 hours before the tetanus was applied and subfused with doxycycline solution throughout the recordings.

SC-CA1 synapse [9] = assay: LTP induced by two trains in slices of Tet-CN279 mice on or off doxycycline (tTA system); format: cell-based, mouse
Description: as §1
The transgenic mice CN279 and CN273 were generated by microinjection of the linear construct as previously described (Hogan et al., 1994; Winder et al., 1998). Analysis of founder mice for integration of the transgene was performed by Southern blotting and PCR. The founder mice were backcrossed to C57BL6 F1/J mice to generate the transgenic lines CN279 and CN273. […]

NC(CCCP(=O)(O)O)C(=O)O (racemic) [DL-AP5]
NMDA-mediated field potentials in the presence of the drug (NMDA receptors): abolished

C=CCN1CCc2c(cc(O)c(O)c2Br)[C@@H](c2ccccc2)C1 [6-Br-APB, R(+)-6-Bromo-7,8-dihydroxy-3-allyl-1-phenyl-2,3,5-tetrahydro-1H-3-benzazepine]
fEPSP slope, % of baseline at 3 hr after drug application (SC-CA1 synapse [1]; CN98 mutant slices): 181±41 % of baseline | fEPSP slope, % of baseline at 3 hr after drug application (SC-CA1 synapse [1]; wild-type slices): 204±40 % of baseline

O=C(O)CN(CCOCCOCCN(CC(=O)O)CC(=O)O)CC(=O)O [EGTA]
Phosphatase activity in the presence of the calcium chelator (calcineurin [2]): virtually abolished | Phosphatase activity in the presence of the Ca2+ chelator (calcineurin [3]): blocked | Phosphatase activity (calcineurin [4]; mutant (Tet-CN279+Tet-CN273)+EGTA): 0.287±0.17 nmol Pi/min/mg | Phosphatase activity (calcineurin [4]; wild-type (Tet-CN279+Tet-CN273)+EGTA): 0.432±0.11 nmol Pi/min/mg

CCCCCCOC(=O)[C@]1(O)C[C@@H]2O[C@@]1(C)n1c3ccccc3c3c4c(c5c6ccccc6n2c5c31)C(=O)NC4 [KT5720]
Decay of LTP induced by four 100 Hz trains, compared with anisomycin (SC-CA1 synapse [5]): much more rapid decay of LTP | LTP elicited by two trains, % of baseline at 1 hr (SC-CA1 synapse [6]; wild-type slices, KT5720, no drug 206±23%): 153±5 % of baseline

Nc1ncnc2c1ncn2[C@@H]1O[C@@H]2COP(O)(=S)O[C@H]2[C@H]1O (stereo partly drawn) [Sp-cAMPS]
fEPSP slope, % of baseline at 3 hr after drug application (SC-CA1 synapse [1]; CN98 mutant slices): 122±17 % of baseline | fEPSP slope, % of baseline at 3 hr after drug application (SC-CA1 synapse [1]; wild-type slices): 124±13 % of baseline

COc1ccc(C[C@H]2NC[C@H](O)[C@H]2OC(C)=O)cc1 [anisomycin]
Effect on protein synthesis in area CA1 [7]: completely block protein synthesis | Sensitivity of LTP elicited by two trains to preincubation with the drug (SC-CA1 synapse [6]; wild-type slices, anisomycin (FIG. 4C)): completely insensitive

COC[C@@H]([C@H](O)[C@H](O)C(=O)NCC[C@H](C)c1nc(/C=C/C[C@@H]2O[C@]3(C[C@@H](O)[C@@H]2C)O[C@H]([C@H](C[C@H](O)[C@H](C)[C@H](O)[C@H](C)/C=C(C)/C(C)=C/C=C/C(C)=C\C#N)OC)[C@H](OP(=O)(O)O)C3(C)C)co1)N(C)C [calyculin A]
LTP induced with two 100 Hz trains after drug pretreatment, mutant versus wild-type (SC-CA1 synapse [6]; Tet-CN279 mutant slices, 750 nM, 30 minutes pretreatment): indistinguishable from that seen in wild-type

C[C@H]1c2cccc(O)c2C(=O)C2=C(O)[C@]3(O)C(=O)C(C(N)=O)=C(O)[C@@H](N(C)C)[C@@H]3[C@@H](O)[C@@H]21 [doxycycline]
LTP induced by two 100 Hz trains (I-LTP), % of baseline at 1 hour ([8]; rTet-CN279 Control dox): 195±9 % of baseline | LTP induced by two 100 Hz trains (I-LTP), % of baseline at 1 hour ([8]; rTet-CN279 Mutant dox): 141±8 % of baseline | LTP induced by two trains, % of baseline at 1 hr (SC-CA1 synapse [9]; Tet-CN279 Wt on doxycycline (1 mg/ml water, 1 ng/ml ACSF)): 191±18 % of baseline | LTP induced by two trains, % of baseline at 1 hr (SC-CA1 synapse [9]; Tet-CN279 mutant on doxycycline (1 mg/ml water, 1 ng/ml ACSF)): 184±18 % of baseline

— patent US20020129385A1, “MEDTHODS FOR IMPROVING LONG-TERM MEMORY STORAGE AND RETRIEVAL” (priority 1998, published 2002)
